Read-outs that look alike come from different tables or passages of the source. Residues, ends and D or L forms follow the SMILES beside them. *: point of attachment. Moc = COC(=O)*
Experiments:
[1] = Mouse Liver Microsomal Metabolic Stability Assay; conditions: for Remaining (*NCF = 60min): MLM 0.5, no co-factor; for Remaining (T = 60 min): MLM 0.5, with NADPH regenerating system
Method: 100 mM potassium phosphate buffer, pH 7.4. • 2. 10 mM MgCl2 • 3) Compound Dilution:
Intermediate solution was prepared by diluting 5 μL of compound or control stock solution (10 mM in DMSO) with DMSO (45 μL) and 1:1 Methanol/Water (450 μL) (concentration=100 μM, 45% MeOH). Working solution was prepared by diluting 50 μL of the intermediate solution with 450 μL of 100 mM potassium phosphate buffer, pH=7.4 (centration=10 μM, 4.5% MeOH). • 4) NADPH regenerating system (final Isocitric dehydrogenase concentration=1 unit/mL at incubation) comprised:
10 μL/well of compound working solution or control working solution was added to all plates (T0, T5, T10, T20, T30, T60, NCF60) except the matrix blank. 80 μL/well of microsome solution was added to every plate. The mixtures of microsome solution and compound were incubated at 37° C. for about 10 min. 10 μL/well of NADPH regenerating system (pre-warmed to 37° C.) was then added to every plate to start the reaction. […] For NCF60 (abbreviation of no co-factor) no NADPH regenerating system was added, but was replaced by 10 μL/well of potassium phosphate buffer (100 mM, pH 7.4); the resulting mixture was incubated at 37° C. for 1 h.
The reactions were then terminated with the stop solution (cold at 4° C.) containing 100 ng/mL Tolbutamide and 100 ng/mL Labetalol ([…]). The sampling plates were shaken for approximately 10 minutes, then were centrifuged at 4000 rpm for 20 min at 4° C. While centrifuging, 8 new 96 well plates were loaded with […] of HPLC grade water. 100 μL of supernatant was finally added to 300 μL of HPLC grade water and mixed for LC/MS/MS analysis.
The equation of first order kinetics was used to calculate T1/2 and CIint(mic): […]

in vitro = conditions: human
Method: Digoxin, fenoterol, and propranol were used as standards respectively. Transport Method:
The transport buffer used in the study was HBSS with 10 mM HEPES at pH 7.40±0.05. Compounds were tested at 2 μM bi-directionally in duplicates. Digoxin was tested at […] bi-directionally in a duplicate, while fenoterol and propranolol were tested at 2 μM in A(apical) to B (basolateral) direction in duplicates. The final DMSO concentration was adjusted to less than 1%. The plate was incubated for 2 hours in a CO2 incubator at 37±1° C., with 5% CO2 at saturated humidity without shaking. All samples, after mixing with acetonitrile containing internal standard, were centrifuged at 4000 rpm for 20 min. Subsequently,100 μL supernatant solution was diluted with 100 μL distilled water for LC/MS/MS analysis. Concentrations of test and control compounds in starting solution, donor solution, and receiver solution were quantified by LC/MS/MS methodologies, using peak area ratio of analyte/internal standard. After transport assay, lucifer yellow rejection assay was applied to determine the Caco-2 cell monolayer integrity.
Data analysis: The apparent permeability coefficient Papp (cm/s) was calculated using the equation:
The efflux ratio was calculated using the equation: Efflux ratio=Papp(BA)/Papp(AB)
Percent recovery was calculated using the equation: % Recovery=100×[(Vr·Cr)+(Vd·Cd)]/(Vd·C0) Where Vd is the volume in the donor chambers (0.075 mL on the apical side, 0.25 mL on the basolateral side); Cd and Cr are the final concentrations of transport compound in donor and receiver chambers, respectively.

Plasma Stability Assay = format: in vitro ADME, mouse; conditions: CD-1 Mouse Plasma
Method: Propantheline was used as the reference compound in this assay; all stock solutions were stored at −40° C. before use. • 2) Test system: CD-1 Mouse Plasma from a minimum of 20 male individuals were obtained from BioreclamationlVT (Catalog #: […]2-M; Batch #: MSE244515). EDTA-K2 was used as the anticoagulant. Procedure:
The frozen plasma was thawed in a water bath at 37° C. prior to the experiments. The plasma was centrifuged at 4000 rpm for 5 min and the clots were removed if necessary.
The pH was adjusted to 7.4±0.1 as necessary. An intermediate solution (1 mM) was prepared and a 100 μM dosing solution was prepared by diluting 10 μL of the intermediate solution with 90 μL 45% MeOH/H2O. Duplicate of test samples were made by mixing 98 μL of blank plasma with 2 μL of dosing solution (100 μM) to achieve the final concentration of 2 μM. Samples were incubated at 37° C. At each time point (0, 10, 30, 60, and 120 min), 400 μL of stop solution (consisting of 200 ng/mL tolbutamide and 20 ng/mL buspirone in 50% MeOH/CH3CN) was added to precipitate protein under thorough mixing. The sample plates were then centrifuged at 4,000 rpm for 10 min. An aliquot of supernatant (100 μL) was transferred from each well and mixed with 200 of μL ultrapure water. The samples were shaken at 800 rpm for about 10 min before LC-MS/MS analysis.
Data analysis: The % remaining of test compound after incubation in plasma was calculated using following equation: Remaining=100×(PAR at Tn/PAR at T0) where PAR is the peak area ratio of analyte versus internal standard (IS) and The appointed incubation time points are T0 (0 min), Tn (n=0, 10, 30, 60, 120 min).
LC-MS/MS condition: Each compound was analyzed by LC/MS using an ACE 5-phenyl 50×2.1 mm column (Part No. ACE-125-0502) with 0.1% formic acid in water and 0.1% formic acid in acetonitrile as the mobile phases. Tobultamide was used as the internal standard. Data collected were processed by Analyst 1.6.2 software and MultiQuant 3.0.2 software.

[2] = biological target: human neutrophil elastase (Homo sapiens (Human), UniProt P08246); test: Elastase inhibition assay, purified human neutrophil elastase; format: biochemical; conditions: for LipE / IC50: Purified NHE; for IC50: 30 minutes incubation at room temperature, 100 μM substrate
Chain of human neutrophil elastase (P08246 30-247): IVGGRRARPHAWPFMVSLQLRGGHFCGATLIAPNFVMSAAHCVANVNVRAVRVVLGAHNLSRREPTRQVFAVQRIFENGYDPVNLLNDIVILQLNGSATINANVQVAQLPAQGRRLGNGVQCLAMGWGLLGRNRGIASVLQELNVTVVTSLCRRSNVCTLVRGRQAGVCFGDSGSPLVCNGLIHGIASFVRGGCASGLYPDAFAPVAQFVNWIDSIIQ
Method: Serially diluted compounds in DMSO were dispensed into a 384-well black opaque plate by Echo dispenser. 0.1 μg/mL human neutrophil elastase (EPC, Catalog# SE563, Owensville, Ms.) or human sputum diluted with assay buffer (100 mM HEPES, 500 mM NaCl, 0.02% Tween 20) was added into the 384-well plate, and was incubated with different compounds at different concentrations for 30 minutes at room temperature. The final concentration of DMSO in the reaction was 0.1%. […] Slope of fluorescence intensity vs. time representing the Vmax of enzyme activity was calculated with MARS software. % relative inhibition was calculated as: […]
(§1) IC50 was calculated based on the % relative inhibition curve using log(agonist) vs. response (three parameters) method with Prism software. All experiments were performed in triplicate for at least three independent times.

[3] = biological target: elastase in CF patient sputum (Homo sapiens (Human), UniProt P08246); test: Elastase inhibition assay in CF patient sputum; format: biochemical; conditions: for IC50 / LipE: CF sputum
Chain of elastase in CF patient sputum (P08246 30-267): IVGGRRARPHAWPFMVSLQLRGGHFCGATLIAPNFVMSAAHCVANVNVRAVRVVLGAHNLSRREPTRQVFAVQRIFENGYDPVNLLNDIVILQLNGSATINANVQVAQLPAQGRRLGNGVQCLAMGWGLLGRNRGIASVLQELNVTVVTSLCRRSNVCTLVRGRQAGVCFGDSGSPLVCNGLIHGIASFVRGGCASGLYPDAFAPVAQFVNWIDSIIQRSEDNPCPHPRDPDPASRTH
Method: (§2) Serially diluted compounds in DMSO were dispensed into a 384-well black opaque plate by Echo dispenser. 0.1 μg/mL human neutrophil elastase (EPC, Catalog# SE563, Owensville, Ms.) or human sputum diluted with assay buffer (100 mM HEPES, 500 mM NaCl, 0.02% Tween 20) was added into the 384-well plate, and was incubated with different compounds at different concentrations for 30 minutes at room temperature. The final concentration of DMSO in the reaction was 0.1%. Elastase substrate MeOSuc-AAPV-AMC (Bachem, Catalog #I-1270, Torrance, CA) of 100 μM final concentration was then added into the reaction system just before enzyme kinetics were read on PheraSTAR plate reader at excitation of 380 nm and emission of 460 nm with a 3-minutes interval for 30 minutes in total. Slope of fluorescence intensity vs. time representing the Vmax of enzyme activity was calculated with MARS software. % relative inhibition was calculated as: […]
as §1
(§3) Human sputum was purchased from Discovery Life Sciences (Los Osos, CA). Human sputum was diluted 1:10 in volume with assay buffer (100 mM HEPES, 500 mM NaCl, 0.02% Tween 20) followed by vigorous vortexing. The 1:10 diluted human sputum was further diluted into 1:30, 1:90, 1:270, 1:810, and 1:2430. The elastase concentration was determined by elastase inhibition assay as described above. Specifically, a series of standards of human neutrophil elastase (starting at 2 μg/mL and further diluted 1:2 in volume) were prepared in the assay buffer. The samples and standards were plated in a 384-well black solid bottom plate; the substrate MeOSuc-AAPV-AMC of 100 μM final concentration was then added into the reaction system just before enzyme kinetics were read on PheraSTAR plate reader as mentioned above. The slope of enzymatic kinetic reading was calculated by MARS software. The elastase levels of the human sputum were calculated based on the standard curve.

[4] = biological target: elastase in COPD patient sputum (Homo sapiens (Human), UniProt P08246); test: Elastase inhibition assay in COPD patient sputum; format: biochemical
Chain of elastase in COPD patient sputum (P08246 30-267): as above
Method: as §2, §1, §3

[5] = Caco-2, pH 7.4, Mean Recovery % A to B
[6] = mouse, liver microsomes, pH 7.4

Compound	LipE [2]	IC50 ([2]; read-out: IC50) [nM]	IC50 [3] [nM]	LipE [3]	IC50 [4] [nM]	LipE [4]	other results
C[C@]12CC[C@H]3[C@@H](CCC4=CC(=O)CC[C@@]43C)[C@@H]1CC[C@@H]2O [Testosterone]	–	–	–	–	–	–	CLint(liver) ([1]; MLM 0.5): 2365.5 mL/min/kg; Remaining (*NCF = 60min) [1]: 70.3%; Remaining (T = 60 min) [1]: 0.0%; half-life at 1 μM ([1]; mouse, microsomes, pH 7.4): 2.3 min; microsomal CLint ([1]; mouse, microsomes, pH 7.4): 597 µL/min/mg
CC(C)NCC(O)COc1cccc2ccccc12 (stereo not shown) [Propranolol]	–	–	–	–	–	–	Papp A→B at 120 min, 2 μM (in vitro; Caco-2, pH 7.4): 19.8 ×10⁻⁶ cm/s; recovery at 2 h, 2 μM (in vitro; [5]): 69.2%
C[C@H]1O[C@@H](O[C@H]2[C@@H](O)C[C@H](O[C@H]3[C@@H](O)C[C@H](O[C@H]4CC[C@@]5(C)[C@H](CC[C@@H]6[C@@H]5C[C@@H](O)[C@]5(C)[C@@H](C7=CC(=O)OC7)CC[C@]65O)C4)O[C@@H]3C)O[C@@H]2C)C[C@H](O)[C@@H]1O [Digoxin]	–	–	–	–	–	–	Papp A→B at 120 min, 2 μM (in vitro; Caco-2, pH 7.4): < 0.02 ×10⁻⁶ cm/s; Papp B→A at 120 min, 2 μM (in vitro; Caco-2, pH 7.4): 8.5 ×10⁻⁶ cm/s; efflux ratio at 2 h, 2 μM (in vitro; Caco-2, pH 7.4): > 364; recovery at 2 h, 2 μM (in vitro; [5]): < 91.2%; recovery at 2 h, 2 μM (in vitro; Caco-2, pH 7.4, Mean Recovery % B to A): 100%
CC(C)[N+](C)(CCOC(=O)C1c2ccccc2Oc2ccccc21)C(C)C [Propantheline]	–	–	–	–	–	–	% Remaining (mean) (Plasma Stability Assay; 0 min, 2 μM, 37° C.): 100.0%; % Remaining (mean) (Plasma Stability Assay; 10 min): 76.8%; % Remaining (mean) (Plasma Stability Assay; 30 min): 39.1%; % Remaining (mean) (Plasma Stability Assay; 60 min): 21.7%; % Remaining (mean) (Plasma Stability Assay; 120 min): 7.7%
COC(=O)C1=C(C)N(c2cccc(C(F)(F)F)c2)c2n[nH]c(=O)n2C1c1ccc(C#N)cc1 (stereo not shown) [Compound 56]	4.59	1.34 ± 0.13	2.68 ± 0.04	4.29	1.12 ± 0.04	4.67	–
COC(=O)C1=C(C)N(c2cccc(C(F)(F)F)c2)c2nn(CC(=O)N(C)CCC[N+](C)(C)C)c(=O)n2C1c1ccc(C#N)cc1 (stereo not shown) [Compound 57]	9.46	0.99 ± 0.13	2.04 ± 0.08	9.16	0.97 ± 0.14	9.45	–
COC(=O)N[C@H](C(=O)N1CCC[C@H]1C(=O)N[C@H](C(=O)O)C(C)C)C(C)C [Compound 50b, (methoxycarbonyl)-L-valyl-L-prolyl-L-valine] (Moc-Val-Pro-Val-OH)	–	–	–	–	–	–	inhibitory activity against HNE (in words) [2]: devoid of any inhibitory activities; IC50 [2]: Not Active
Cc1c(-c2ccnn2C)cc(C(=O)NCc2ccc(S(C)(=O)=O)cn2)c(=O)n1-c1cccc(C(F)(F)F)c1 [Compound 53]	7.32	2.62 ± 0.39	4.08 ± 0.39	7.11	2.98 ± 0.82	7.22	–
CC1=C(C#N)[C@@H](c2ccc(C#N)cc2S(C)(=O)=O)N(C)C(=O)N1c1cccc(C(F)(F)F)c1 [Compound 54, BAY 85-8501]	6.76	–	–	5.87	–	6.85	inhibitory activity in patient sputum versus purified HNE (in words) ([3]; sputum samples of CF and COPD patients): potencies diminished drastically
POL6014 [Compound 55]	–	0.093 ± 0.008	0.48 ± 0.03	17.8	0.051 ± 0.004	18.8	–
O=C(O)Cc1ccccc1Nc1c(Cl)cccc1Cl [Diclofenac]	–	–	–	–	–	–	Remaining (*NCF = 60min) [1]: 88.0%; Remaining (T = 60 min) [1]: 43.0%; Extraction ratio ([1]; MLM 0.5, Qh 90.0 mL/min/Kg): 0.5; CLint scaled at 1 μM [1, 6]: 108 mL/min/kg; microsomal CLint at 1 μM [1, 6]: 27.2 µL/min/mg; half-life at 1 μM ([1]; mouse, microsomes, pH 7.4): 51 min

Source: patent US12415819B2, “Cu- and Ni-catalyzed decarboxylative borylation reactions” (The Scripps Research Institute, priority 2017, dated 2025)
